Source: patent US20260137820A1, “TRIFUNCTIONAL COMPOUND AND USE THEREOF” (PEKING UNIVERSITY, priority 2022, published 2026)

How the values were obtained:
AR42J cells = assay: Cell affinity determination, similar method; type: cell-based
Description: (§1) HT-1080-FAP cells were inoculated into a 24-well plate 24 hours in advance, with the density being about 30% (calculated and estimated), 10^5 cells (countable) per well. 0.5 mL of a complete medium was added. The medium was changed to a serum-free medium. 12 groups of FAPI-CB-01 solutions with a concentration gradient of 0-5000 nM were set up, with internal replicates n=4 for each group. […] 0.75 nM ^68Ga-FAPI-04 was added to each well, followed by incubation at 37° C. for 1 hour. After washing twice with cold PBS and lysis, the radioactivity count was measured.
(§2) Using a similar method, the corresponding targeting PSMA-CB-05, FOLR1-CB-06, SSTR2-CB-02, Nectin4-CB-02, and CXCR4-CB-03 were determined for affinity in LNCaP cells, KB cells, AR42J cells, SW-780 cells, or Daudi cells, respectively. All of these compounds maintained good affinity.

Human FAP Protein = biological target: T1, Human FAP Protein (Homo sapiens, UniProt Q12884); assay: Surface plasmon resonance, multi-cycle mode; type: binding; conditions: SPR multi-cycle, 1:1 binding model
T1 construct: His; purchased Novoprotein (China)
T1 sequence (Q12884 1-760): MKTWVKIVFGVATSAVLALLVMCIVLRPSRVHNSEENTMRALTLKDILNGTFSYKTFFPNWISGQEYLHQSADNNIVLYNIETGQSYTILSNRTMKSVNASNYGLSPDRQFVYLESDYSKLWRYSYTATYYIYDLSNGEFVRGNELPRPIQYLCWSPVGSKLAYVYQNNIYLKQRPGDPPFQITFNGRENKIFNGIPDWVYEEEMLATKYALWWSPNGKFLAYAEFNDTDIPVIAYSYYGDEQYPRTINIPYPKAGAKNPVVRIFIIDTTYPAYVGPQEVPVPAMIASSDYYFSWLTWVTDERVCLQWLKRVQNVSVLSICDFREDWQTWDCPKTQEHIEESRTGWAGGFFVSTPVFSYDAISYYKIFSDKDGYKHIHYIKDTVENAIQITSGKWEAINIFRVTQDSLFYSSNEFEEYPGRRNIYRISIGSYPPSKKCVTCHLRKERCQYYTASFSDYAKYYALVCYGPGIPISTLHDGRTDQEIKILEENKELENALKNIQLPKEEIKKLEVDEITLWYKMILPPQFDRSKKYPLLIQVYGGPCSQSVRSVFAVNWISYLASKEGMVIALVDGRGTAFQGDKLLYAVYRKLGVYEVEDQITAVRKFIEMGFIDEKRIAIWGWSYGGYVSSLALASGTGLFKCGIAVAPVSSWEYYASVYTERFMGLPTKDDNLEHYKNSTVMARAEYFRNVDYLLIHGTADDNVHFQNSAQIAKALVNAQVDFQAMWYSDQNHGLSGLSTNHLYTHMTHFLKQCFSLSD
Description: According to US Pharmacopeia USP43 IMMUNOLOGICAL TEST METHODS-SURFACE PLASMON RESONANCE<1105> and Chinese Pharmacopoeia 2020, Volume IV, Surface plasmon resonance method, Label-free Immunochemistry (IV), 3429 Immunochemistry, General Rule, a surface plasmon resonance experiment was carried out.
A surface plasma chromatograph from Cytiva was used for measurement. Before protein injection, 400 mM condensing agent 1-ethyl-(3-dimethylaminopropyl)carbodiimide hydrochloride and 100 mM N-hydroxysuccinimide were mixed, and a CM5 sensor chip was activated with this mixture for 420 seconds at a flow rate of 10 μL/min. 50 μg/mL protein was then injected into an Fc2 sample channel at a flow rate of 10 μL/min to achieve a protein immobilization level of about 8000-15000 RU. In the control group, no protein was injected. Subsequently, the unreacted chip was blocked with 1M ethanolamine hydrochloride-NaOH at a flow rate of 10 μL/min for 420 seconds.
Different gradient solutions were injected into channels Fc1-Fc2 at a flow rate of 30 μL/min, followed by a 60-second binding phase and a 90-second dissociation phase, and data were collected.

HT-1080-FAP tumor [1] = assay: PET/CT imaging in HT-1080-FAP tumor-bearing mouse model; type: in vivo; conditions: ^68Ga label, 18.5 MBq via tail vein, p<0.005
Description: Mouse model: Nu/Nu mice (SPF grade) were purchased from Beijing Charles River Laboratories (China) and injected subcutaneously with HT-1080-FAP cells to construct a tumor model with high FAP expression.
All PET/CT scans were carried out on Mediso nanoScan® PET 122S small animal PET/CT.
After a certain number of HT-1080-FAP tumor mice were taken and injected via the tail vein with 7.4-18.5 MBq of ^68Ga/^86Y-FAPI-04 (control) and ^68Ga/^86Y-FAPI-CB series molecules at specified time points (Note: the injection of the control and investigation molecules was separated apart by at least five half-lives of the nuclide to ensure that the radioactivity of the previous probe had almost completely decayed and was essentially completely metabolized), imaging was carried out at specified time points. In some examples, the mice were anesthetized and then sacrificed by neck breaking at a certain time point. Organs were dissected and taken for radioactivity measurement.
A ^68Ge-^68Ga generator was eluted with 5 mL of 0.6 M high-purity hydrochloric acid to obtain a Ga-68 hydrochloric acid solution. 1 mL of the Ga-68 solution after elution was taken, and 100 μL of 3 M sodium hydroxide and 130 μL of 3M sodium acetate were added to adjust the acidity to a final pH of 4.0. 12 μg of FAPI-CB-00 compound was added, and the reaction mixture was heated to 70° C. and maintained for 20 min. […]

FAP, DPP-4 and PREP = assay: Binding selectivity to homologous proteins (competitive inhibition of enzyme substrate, IC50); type: biochemical; conditions: from IC50 values, pNA release
Description: Taking FAP target as an example, homologous proteins thereof include, but are not limited to, DPP-4 and PREP. The structural similarity thereof may lead to a decreased binding selectivity of the modified precursor molecules for the homologous proteins, resulting in an increased uptake in non-target organs.
The binding selectivity for homologous proteins was determined by a competitive inhibition experiment on the substrate of the enzymes, and the binding/inhibition selectivity thereof is indirectly evaluated by the median inhibitory concentration (IC50) values obtained.
By reference to the method described in Extended Structure-Activity Relationship and Pharmacokinetic Investigation of (4-Quinolinoyl)glycyl-2-cyanopyrrolidine Inhibitors of Fibroblast Activation Protein (FAP). Journal of Medicinal Chemistry 57, 3053-3074 (2014), published by Jansen et al., the initial rate of p-nitroaniline (pNA) released from the substrate (absorption at 405 nm) was measured by using a microplate reader (PerkinElmer, Victor™ X5) at 37° C. in a final volume of 200 μL to determine the kinetic properties of the enzyme activity. […]
The determination method for IC50 on FAP is as follows: the substrate Z-Gly-Pro-p-nitroanilide (50 μM, Cat #G-58468, HEOWNS) was used to measure FAP activity at pH 7.4. […] The mixture was then incubated at 37° C. for 6 hours, and the release of pNA was then measured. […]

HT-1080-FAP tumor [2] = assay: ^177Lu radionuclide therapy experiment in tumor mouse model; type: in vivo; conditions: ^177Lu-labeled, treatment on day 0 and day 4, same or higher dose; vs normal saline or FAPI-04 control group
Description: (§3) When the average tumor size reached about 100 mm^3, HT-1080-FAP tumor mice in the same batch were randomly divided into five groups, with n=7 or 8 in each group. Two rounds of treatment were then carried out on day 0 and day 4. […] The tumor size and weight of the mice were monitored every 2 or 3 days.

HT-1080-FAP tumor [3] = assay: ^225Ac radionuclide therapy experiment in tumor mouse model; type: in vivo; conditions: ^225Ac-labeled, treatment on day 0 and day 4, same or higher dose; vs normal saline or FAPI-04 control group
Description: as §3

LNCaP cells = assay: Cell affinity determination, similar method; type: cell-based
Description: as §1, §2

`C[C@@H](O)[C@H](NC(=O)[C@@H]1CSSC[C@H](NC(=O)[C@@H](Cc2ccccc2)NC(=O)CN2CCN(CC(=O)O)CCN(CC(=O)O)CCN(CC(=O)O)CC2)C(=O)N[C@@H](Cc2ccc(OS(=O)(=O)F)cc2)C(=O)N[C@H](Cc2c[nH]c3ccccc23)C(=O)N[C@@H](CCCCN)C(=O)N[C@@H]([C@@H](C)O)C(=O)N1)C(=O)O` [SSTR2-CB-02] was tested, and the affinity (AR42J cells) was “good affinity”.
For `N#C[C@@H]1CC(F)(F)CN1C(=O)CNC(=O)c1ccnc2ccc(OCCCN3CCN(C(=O)CN4CCN(CC(=O)O)CCN(CC(=O)O)CCN(CC(=O)O)CC4)CC3)cc12` [FAPI-04, reference compound], the “Rmax (maximum theoretical analyte binding capacity)” value (Human FAP Protein) was 21.7 RU, the ka (Human FAP Protein) was 845000 M⁻¹ s⁻¹ and the kd (Human FAP Protein) was 0.000311 s⁻¹.
In the case of `N#C[C@@H]1CC(F)(F)CN1C(=O)CNC(=O)c1ccnc2ccc(OCCCN3CCN(C(=O)[C@H](CCCCNC(=O)c4cccc(OS(=O)(=O)F)c4)NC(=O)CN4CCN(CC(=O)O)CCN(CC(=O)O)CCN(CC(=O)O)CC4)CC3)cc12` [FAPI-CB-02], the “improvement of maximum standard tumor uptake value (SUVmax) compared with FAPI-04” value (HT-1080-FAP tumor [1]) is reported as roughly 4 times, the “selectivity to FAP protein over homologous proteins DPP-4 and PREP” value (FAP, DPP-4 and PREP) is reported as “high selectivity” and the tumor inhibition effect (HT-1080-FAP tumor [2]) is reported as “significantly better tumor inhibition effect”. For the same compound, the tumor inhibition effect (HT-1080-FAP tumor [3]) was “significantly better tumor inhibition effect”.
`O=C(O)CC[C@H](NC(=O)N[C@@H](CCCCNC(=O)[C@H](Cc1ccc2ccccc2c1)NC(=O)[C@H]1CC[C@H](CNC(=O)[C@H](CCCCNC(=O)CCc2cccc(S(=O)(=O)F)c2)NC(=O)CN2CCN(CC(=O)O)CCN(CC(=O)O)CCN(CC(=O)O)CC2)CC1)C(=O)O)C(=O)O` [PSMA-CB-05] was tested, and the affinity (LNCaP cells) was “good affinity”.
